Here are results for one molecule from patent publication US6506799B1, “Methods of treating cardiovascular diseases, dyslipidemia, dyslipoproteinemia, and hypertension with ether compounds” (Esperion Therapeutics, Inc., priority 1999, dated 2003).

One experiment deals with 3T3-L1 cells. The experiment can be described thus: Insulin sensitization: 14C-acetate incorporation into lipids in 3T3-L1 preadipocytes. The format is cell-based. Conditions: preadipocytes treated 4 days; insulin-dependent (30 nM insulin); FIG. 20. Here is the method:
The effects of Compound A on rate of differentiation of 3T3-L1 cells from a “committed pre-adipocyte” to an “adipocyte” phenotype in the absence or presence of insulin is tested. The differentiation of 3T3-L1 cells to an adipocyte-like phenotype is highly dependent upon insulin. […] In this assay the degree of differentiation was a reflection of the rate of lipid synthesis, as measured through incorporation of ^14C-acetate over 2 hours.
3T3-L1 stem cells were induced to differentiate with dexamethasone, isobutylmethylxanthine and insulin (Green and Kehinde, 1975, Cell 5:19-27). Cells were plated in Dulbecco's modified Eagle medium containing 10% calf serum and grown to confluence. Cells were then refreshed with 10% fetal calf serum, and treated with 0.5 mM isobutylmethylxanthine and 250 nM dexamethasone, but no additional insulin, for 48 hours. […]
The preadipocytes were then treated for 4 days with various concentrations of Compound A in 5% fetal calf serum in Dulbecco's modified Eagles medium, with or without a submaximal concentration of insulin (30 nM). […] Cell were then washed with phosphate buffered saline, lysed with 0.1 N NaOH, and ^14C-acetate incorporation into lipids was determined using phase separation and liquid scintillation counting.

The subject of the next experiment is primary rat hepatocytes. The experiment can be described thus: Synthesis of non-saponified and saponified lipids (14C-acetate incorporation) in hepatocytes. The format is cell-based. The note with it: 100 μM; 14C-acetate 2 hr; vs no compound control. Here is the method:
A male Sprague-Dawley rat was anesthetized by administration of sodium pentobarbitol by intraparitoneal injection at 50 mg/kg. In situ perfusion of the liver was performed as follows. […] To digest the liver, DSC solution (6.7 mM KCl, 143 mM NaCl, 9.2 mM Na HEPES, 5 mM CaCl2-2H2O, 1.7 mM Fructose, 0.029 mM Phenol red, 0.2% BSA, 100 U/ml collagenase Type I, 93 U/ml Hyaluronidase, 160 BAEE/ml trypsin inhibitor, pH 7.5) was perfused through the liver at a flow rate of 30 ml/min for 6 minutes at a temperature of 37° C. After digestion, cells were dispersed in a solution of DMEM-(DMEM containing 2 mM GlutMax-1, 0.2% BSA, 5% FBS, 12 nM insulin, 1.2 μM hydrocortisone) to stop the digestion process. The crude cell suspension was filtered through three layers of stainless steel mesh with pore sizes of 250, 106, and 75 μm respectively. Filtered cells were centrifuged at 50×g for two minutes and the supernatant discarded. The resulting cell pellet was resuspended in DMEM and centrifuged again. This final cell pellet was resuspended in DMEM+HS solution (DMEM containing 2 mM GlutMax-1, 20 nM delta-aminolevulinic acid, 17.4 mM MEM non-essential amino acids, 20% FBS, 12 nM insulin, 1.2 µM hydrocortisone) and plated to form monolayer cultures at a density of 100×10^3 cells/cm^2 on collagen coated culture dishes. Four hours after initial plating, media was changed to DMEM+(DMEM containing 2 mM GlutMax-1, 20 nM delta-aminolevulinic acid, 17.4 mM MEM non-essential amino acids, 10% FBS, 12 nM insulin, 1.2 μM hydrocortisone) and remained on cells overnight.
To test the effect of illustrative compounds of the invention on synthesis rates of non-saponified and saponified lipids, the monolayer cultures were exposed to 1 μM of lovastatin or 100 μM Compound A, B, D, E or F in DMEM+ containing 1 μCi/ml ^14C-acetate. Control cells were exposed to the same media lacking lovastatin or the test compounds. All cells were exposed to 0.1% DMSO. Metabolic labeling with ^14C-acetate continued for 2 hr at 37° C. After labeling, cells were washed twice with 1 ml of PBS followed by lysing in 1 ml of deionized water. Cells were scraped from the dishes, transferred to glass tubes and sonicated. 2.5 ml of 2:1 chloroform/methanol mixture was added followed by 1.5 ml of Phosphate Buffered Saline (PBS). To correct for extraction efficiency in the upcoming extractions, 3000 dpm of ^3H-cholesterol was added to each tube. Tubes were shaken for 30 min. to extract lipids into the organic phase followed by centrifugation for 10 minutes at 1000×g to separate the organic and aqueous phases. The lower organic phase containing total lipids was removed and placed in a new tube. The organic solution was evaporated under N2. […]

Each structure is given as a SMILES string.

Turning to `CC(C)(CO)CCCCOCCCCC(C)(C)CO` [Compound A, 6-(6-hydroxy-5,5-dimethylhexyloxy)-2,2-dimethyl-hexan-1-ol], the “increase of 14C-acetate incorporation into lipids” value in the experiment with 3T3-L1 cells is “approximately 40%”. Moreover, in the experiment with primary rat hepatocytes, the “reduction of the rate of non-saponified lipid synthesis” value is “at least 85%” and the “reduction of the rate of saponified lipid synthesis” value is “at least 85%”.
